Values joined by “and” are separate entries in the source; they are usually repeats but may differ in a detail not shown here. Equal entries are not always repeated.
Columns and labels:
[1] = Reduction of hydrogen peroxide; conditions: compounds 0.1 mM; phosphate buffer pH 7.4; 10 min
Protocol: Harmful hydroxyl radicals are released when hydrogen peroxide interacts with transition metal ions, leading to oxidative stress. Consequently, both oxidative stress and the production of reactive oxygen species could be reduced by ^•OH scavengers and H2O2 reducing agents.
S1 Antioxidant activity assay
The antioxidant activity of the compound was evaluated via the ability to scavenge in vitro free radicals such as DPPH and ABTS and to reduce H2O2. […]
S1.3 Reduction of hydrogen peroxide
The ability of the compounds to reduce hydrogen peroxide (H2O2) was estimated according to the method described in the literature. The reaction mixture contained 20 μL of each of the tested compounds (0.1 mM) and 5 μL H2O2 solution (40 mM) in phosphate […]
buffer (50 mM, pH 7.4). The absorbance was measured at 230 nm after 10 min. The antioxidant activity (reduction of H2O2) of the compounds was expressed as the percentage decrease of the initial H2O2 solution (H2O2%). […]

CT DNA = assay: Interaction with CT DNA by UV-vis spectroscopy; assay type: binding, calf; conditions: for percentage of the observed hyper-/hypochromism (ΔA/A0, %) / blue-/red-shift in λmax (Δλ, nm): upon addition of CT DNA; for DNA-binding constant Kb: Wolfe–Shimer equation
Protocol: UV-vis spectroscopy was employed to determine the interaction mode of the compounds (4′–NO2–fenH and its complexes 1–4) with DNA and calculate the DNA-binding constant (Kb). For this reason, the UV-vis spectra of the compounds (2 × 10^−5–10^−4 Μ) were recorded in the presence of incremental additions of CT DNA solution (Figure S4), and the changes (in absorbance and wavelength) of the initial bands were monitored. […] However, a definite conclusion cannot be reached from such spectroscopic data, but the interaction mode could be further corroborated by viscosity measurements.
The Kb values of the compounds were calculated with the Wolfe–Shimer equation (Equation (S1)) and the corresponding plots of [DNA]/(εA–εF) vs. [DNA] (Figure S5).
S3 Binding studies with CT DNA
In order to study the interaction of the compounds with DNA, the compound was initially dissolved in DMSO (1 mM). Mixing of such solutions with the aqueous buffer solutions of DNA used in the studies never exceeded 5% DMSO (v/v) in the final solution, which was needed due to low aqueous solubility of most compounds. In all experiments, the effect of DMSO on the data has been taken into consideration and the appropriate corrections have been performed. The interaction of the compound with CT DNA was monitored by UV−vis spectroscopy, and viscosity measurements, and via competitive studies with EB by fluorescence emission spectroscopy.
S3.1 Binding study with CT DNA by UV−vis spectroscopy
The interaction of the compound with CT DNA has been studied by UV−vis spectroscopy in order to investigate the possible binding mode to CT DNA and to calculate the DNA−binding constant (Kb). of the compounds Kb (in M−1) was determined with the Wolfe−Shimer equation (equation S1) and the plots [DNA]/(εA−εf) versus [DNA] using the UV−vis spectra of the compound (25–100 μM) recorded for a constant concentration with increasing amounts of CT DNA for diverse [compound]/[DNA] mixing ratios (= r).
According to the Wolfe−Shimer equation:
[DNA] = [DNA] + 1 (equation S1)
(εA−εf) (εb−εf) Kb(εb−εf) where [DNA] is the concentration of DNA in base pairs, εA = Aobsd/[compound], εf = the extinction coefficient for the free compound and εb = the extinction coefficient for the compound in the fully bound form. Kb is given by the ratio of slope to the y intercept in plots [DNA]/(εA−εf) versus [DNA]. […]

EB–DNA adduct (CT DNA) = assay: EB-displacement (EB–DNA fluorescence quenching); assay type: binding, calf; conditions: for relative EB–DNA fluorescence emission intensity (I/Io, %), final: % of the initial EB–DNA fluorescence remaining, λemission 594 nm; for percentage of EB–DNA fluorescence emission quenching (ΔI/I0, %): λexcitation 540 nm, emission 594 nm, buffer pH 7; for quenching constant Kq (EB–DNA): τ0 = 23 ns
Protocol: For the current study, the EB–DNA adduct was prepared in situ after 1-h pretreatment of EB (40 μΜ) and CT DNA (40 μΜ) in buffer solution (sodium chloride 150 mM and sodium citrate 15 mM at pH = 7).
Furthermore, the Stern–Volmer constants (KSV) that represent the ability of the compounds to induce quenching were calculated with the Stern–Volmer equation (Equation (S2)) and the corresponding Stern–Volmer plots […] vs. [Q] (Figure S8). […] The corresponding quenching constants (Kq) were calculated with Equation (S3) using the value of 23 ns as the fluorescence lifetime (τ0) of EB–DNA adduct.
S3.4 EB−displacement studies
The competition of the compounds with EB was investigated by fluorescence emission spectroscopy to examine whether the compounds can displace EB from its DNA−EB adduct. The CT DNA−EB complex was formed by pre−treating 40 μM EB and […] CT DNA in buffer (150 mM NaCl and 15 mM trisodium citrate at pH 7.0). The possible displacement of EB by the compound sand subsequently the intercalating effect was studied by the stepwise addition of a certain amount of the solution of each compound into the solution of the CT DNA−EB adduct. The solutions were excited at 540 nm and the emission was monitored from 550−700 nm with λmax = 592−594 nm and the effect of the addition of the compounds to the CT−DNA EB solution was recorded. […]
fluorescence emission bands at room temperature in solution or in the presence of CT DNA or EB under the same experimental conditions (λexcitation = 540 nm); therefore, the observed quenching of the EB−DNA solution may be attributed to the displacement of EB from its […]
The Stern−Volmer constants (KSV, in M−1) were calculated according to the linear Stern−Volmer equation (equation S2) and the respective plots Io/I versus [compound]:
Io = 1 + K τ [Q] = 1 + K [Q] (equation S2) […]
where Io and I are the emission intensities of the EB−DNA solution in the absence and the presence of the compound, respectively, τo = the average lifetime of the emitting system without the quencher and kq = the quenching constant. Taking τo = 23 ns as the fluorescence lifetime of the EB−DNA adduct, the quenching constant of the compound (Kq, in M−1s−1) was calculated according to equation [6]: […]

Solubility = assay type: physicochemical
[2] = UV band at λmax 391–421 nm, + hyperchromism, − hypochromism
[3] = UV band at λmax 391–421 nm, + red-shift, − blue-shift

## O=C(O)c1ccccc1Nc1ccc([N+](=O)[O-])cc1 [4′–NO2–fenH, 4′–nitrofenamic acid]
[1]
  H2O2-reducing ability (H2O2%): 66.46% and 66.46 ± 0.33%
CT DNA; [2]
  percentage of the observed hyper-/hypochromism (ΔA/A0, %): −12%
CT DNA; [3]
  blue-/red-shift in λmax (Δλ, nm): +20 nm
CT DNA; listed as 4′–NO2–fenamic acid
  DNA-binding constant Kb: 1.62e+06 M⁻¹
EB–DNA adduct (CT DNA)
  Stern–Volmer constant Ksv (EB–DNA): 5.36 (±0.27) × 10^4 M^−1
  relative EB–DNA fluorescence emission intensity (I/Io, %), final: 52.9%
  percentage of EB–DNA fluorescence emission quenching (ΔI/I0, %): 47.1%
  quenching constant Kq (EB–DNA): 2.33 (±0.11) × 10^12 M^−1s^−1

## CO.CO.CO.CO.O=C([O-])c1ccccc1Nc1ccc([N+](=O)[O-])cc1.O=C([O-])c1ccccc1Nc1ccc([N+](=O)[O-])cc1.[Co+2] [Complex 1, [Co(4′–NO2–fen)2(MeOH)4]]
[1]
  H2O2-reducing ability (H2O2%): 72.68 ± 0.63%
CT DNA; [2]
  percentage of the observed hyper-/hypochromism (ΔA/A0, %): −10%
CT DNA; [3]
  blue-/red-shift in λmax (Δλ, nm): 0 nm
EB–DNA adduct (CT DNA)
  Stern–Volmer constant Ksv (EB–DNA): 4.99 (±0.14) × 10^4 M^−1
  relative EB–DNA fluorescence emission intensity (I/Io, %), final: 35.4%
  percentage of EB–DNA fluorescence emission quenching (ΔI/I0, %): 64.6%
  quenching constant Kq (EB–DNA): 2.17 (±0.06) × 10^12 M^−1s^−1
Solubility
  solubility in H2O and MeCN: partially soluble

## O=C([O-])c1ccccc1Nc1ccc([N+](=O)[O-])cc1.O=C([O-])c1ccccc1Nc1ccc([N+](=O)[O-])cc1.[Co+2].c1ccc(Nc2ccccn2)nc1 [Complex 2, [Co(4′–NO2–fen)2(bipyam)]]
[1]
  H2O2-reducing ability (H2O2%): 77.59 ± 0.28%
CT DNA; UV band at λmax 321 nm
  blue-/red-shift in λmax (Δλ, nm): −0.5 nm
  percentage of the observed hyper-/hypochromism (ΔA/A0, %): +4%
CT DNA; [2]
  percentage of the observed hyper-/hypochromism (ΔA/A0, %): −10%
CT DNA; [3]
  blue-/red-shift in λmax (Δλ, nm): 0 nm
EB–DNA adduct (CT DNA)
  Stern–Volmer constant Ksv (EB–DNA): 8.91 (±0.21) × 10^4 M^−1
  relative EB–DNA fluorescence emission intensity (I/Io, %), final: 32.6%
  percentage of EB–DNA fluorescence emission quenching (ΔI/I0, %): 67.3%
  quenching constant Kq (EB–DNA): 3.88 (±0.09) × 10^12 M^−1s^−1
Solubility
  solubility in H2O and MeCN: partially soluble

## O=C([O-])c1ccccc1Nc1ccc([N+](=O)[O-])cc1.O=C([O-])c1ccccc1Nc1ccc([N+](=O)[O-])cc1.[Co+2].c1cnc2c(c1)ccc1cccnc12 [Complex 3, [Co(4′–NO2–fen)2(phen)]]
[1]
  H2O2-reducing ability (H2O2%): 69.48 ± 0.37%
CT DNA; [2]
  percentage of the observed hyper-/hypochromism (ΔA/A0, %): −2.5%
CT DNA; [3]
  blue-/red-shift in λmax (Δλ, nm): +0.5 nm
EB–DNA adduct (CT DNA)
  Stern–Volmer constant Ksv (EB–DNA): 7.39 (±0.21) × 10^4 M^−1
  relative EB–DNA fluorescence emission intensity (I/Io, %), final: 26.3%
  percentage of EB–DNA fluorescence emission quenching (ΔI/I0, %): 73.7%
  quenching constant Kq (EB–DNA): 3.21 (±0.09) × 10^12 M^−1s^−1
Solubility
  solubility in H2O and MeCN: partially soluble

## C[O-].C[O-].Cc1ccc2ccc3ccc(C)nc3c2n1.Cc1ccc2ccc3ccc(C)nc3c2n1.O=C([O-])c1ccccc1Nc1ccc([N+](=O)[O-])cc1.O=C([O-])c1ccccc1Nc1ccc([N+](=O)[O-])cc1.[Co+2].[Co+2] [Complex 4, [Co2(4′–NO2–fen)2(μ–CH3O)2(neoc)2]]
[1]
  H2O2-reducing ability (H2O2%): 72.44 ± 0.42%
CT DNA; [2]
  percentage of the observed hyper-/hypochromism (ΔA/A0, %): −3%
CT DNA; [3]
  blue-/red-shift in λmax (Δλ, nm): −4.5 nm
CT DNA
  DNA-binding constant Kb: 2.06e+06 M⁻¹
EB–DNA adduct (CT DNA)
  Stern–Volmer constant Ksv (EB–DNA): 7.78 (±0.24) × 10^4 M^−1
  relative EB–DNA fluorescence emission intensity (I/Io, %), final: 26.0%
  percentage of EB–DNA fluorescence emission quenching (ΔI/I0, %): 74.0%
  quenching constant Kq (EB–DNA): 3.38 (±0.10) × 10^12 M^−1s^−1
Solubility
  solubility in H2O and MeCN: partially soluble

From PMC12195967, “Cobalt(II) Complexes of 4′–Nitro–Fenamic Acid: Characterization and Biological Evaluation” (Molecules, 2025)
